From patent publication US11426443B2, “Compositions and methods for invasive and non-invasive procedural skincare” (Alastin Skincare, Inc., priority 2016, dated 2022)

Key:
[1] = format: physicochemical
Description: Certain components of the formulation tend to be difficult to solubilize in conventional formulations. […] For topical compositions containing from about 0.05% by weight to about 0.1% by weight phosphatidyl serine and/or from about 0.05% by weight to about 0.1% by weight oleuropein, caprylyl methicone in an amount of from about 0.5% by weight to about 1% by weight of caprylyl methicone can solubilize these components in an anhydrous formulation.
In Formula 8B, the amount of palmitoyl tripeptide was increased to 3%, and phosphatidylserine (lipoid PS P 70) was added, along with oleuropein 80% at 0.025%. […] In Formula 9B, the concentration of heptyl undecylenate was lowered to 2.5%, caprylyl methicone was added to solubilize the Lipoind PS P 70, which was increased to 0.05%, and oleuropein 80% was increased to 0.05%. The viscosity for Formula 9B was approximately 5000 cPs.

MMP-2 = conditions: wound chamber, vs control, cited from earlier work
VEGF = conditions: pg VEGF/ng DNA as a function of GHK ng/mL; FIG. 11; cited from earlier work

Row | Compound | solubility in heptyl undecylenate [1] | gelatinolytic activity (peaks area/μg protein), MMP-2 (MMP-2; from day 3, peaking at days 18-22, FIG. 9) | gelatinolytic activity (peaks area/μg protein) (MMP-2; from day 12, peaking at days 18-22, FIG. 10) | secretion of VEGF (VEGF)
1 | C/C=C1/[C@H](O[C@@H]2O[C@H](CO)[C@@H](O)[C@H](O)[C@H]2O)OC=C(C(=O)OC)[C@H]1CC(=O)OCCc1ccc(O)c(O)c1 [oleuropein] | poor solubility |  |  | 
2 | glycine-histidine-lysine [GHK] |  | far greater degree than control | far greater degree than control | dose-dependently increases
3 | phosphatidylserine [Lipoid PS P70] | poor solubility |  |  | 
